Test results published in patent publication US20220356174A1, “PYRIDIN-2-ONE COMPOUNDS USEFUL AS SMARCA2 ANTAGONISTS” (Epizyme, Inc., priority 2018, published 2022).
Where two headings read alike, the source gives them in different places.

How the values were obtained:
[1] = target: T1, FL-SMARCA2 (full-length human SMARCA2 isoform 1) (Homo sapiens, UniProt P51531); test: SMARCA2 ATPase activity assay (ADP-Glo, chicken mononucleosome substrate); assay type: biochemical; conditions: ATPase assay, enzyme 5 nM, ATP 250 uM, chicken mononucleosome 10 nM, 30 min preincubation
T1 construct: FLAG tag (YKDDDDK) (C); made in house; host or cells: Sf21 insect cells (baculovirus, pFastBacI)
T1 sequence (P51531 with tags, fused parts or gaps): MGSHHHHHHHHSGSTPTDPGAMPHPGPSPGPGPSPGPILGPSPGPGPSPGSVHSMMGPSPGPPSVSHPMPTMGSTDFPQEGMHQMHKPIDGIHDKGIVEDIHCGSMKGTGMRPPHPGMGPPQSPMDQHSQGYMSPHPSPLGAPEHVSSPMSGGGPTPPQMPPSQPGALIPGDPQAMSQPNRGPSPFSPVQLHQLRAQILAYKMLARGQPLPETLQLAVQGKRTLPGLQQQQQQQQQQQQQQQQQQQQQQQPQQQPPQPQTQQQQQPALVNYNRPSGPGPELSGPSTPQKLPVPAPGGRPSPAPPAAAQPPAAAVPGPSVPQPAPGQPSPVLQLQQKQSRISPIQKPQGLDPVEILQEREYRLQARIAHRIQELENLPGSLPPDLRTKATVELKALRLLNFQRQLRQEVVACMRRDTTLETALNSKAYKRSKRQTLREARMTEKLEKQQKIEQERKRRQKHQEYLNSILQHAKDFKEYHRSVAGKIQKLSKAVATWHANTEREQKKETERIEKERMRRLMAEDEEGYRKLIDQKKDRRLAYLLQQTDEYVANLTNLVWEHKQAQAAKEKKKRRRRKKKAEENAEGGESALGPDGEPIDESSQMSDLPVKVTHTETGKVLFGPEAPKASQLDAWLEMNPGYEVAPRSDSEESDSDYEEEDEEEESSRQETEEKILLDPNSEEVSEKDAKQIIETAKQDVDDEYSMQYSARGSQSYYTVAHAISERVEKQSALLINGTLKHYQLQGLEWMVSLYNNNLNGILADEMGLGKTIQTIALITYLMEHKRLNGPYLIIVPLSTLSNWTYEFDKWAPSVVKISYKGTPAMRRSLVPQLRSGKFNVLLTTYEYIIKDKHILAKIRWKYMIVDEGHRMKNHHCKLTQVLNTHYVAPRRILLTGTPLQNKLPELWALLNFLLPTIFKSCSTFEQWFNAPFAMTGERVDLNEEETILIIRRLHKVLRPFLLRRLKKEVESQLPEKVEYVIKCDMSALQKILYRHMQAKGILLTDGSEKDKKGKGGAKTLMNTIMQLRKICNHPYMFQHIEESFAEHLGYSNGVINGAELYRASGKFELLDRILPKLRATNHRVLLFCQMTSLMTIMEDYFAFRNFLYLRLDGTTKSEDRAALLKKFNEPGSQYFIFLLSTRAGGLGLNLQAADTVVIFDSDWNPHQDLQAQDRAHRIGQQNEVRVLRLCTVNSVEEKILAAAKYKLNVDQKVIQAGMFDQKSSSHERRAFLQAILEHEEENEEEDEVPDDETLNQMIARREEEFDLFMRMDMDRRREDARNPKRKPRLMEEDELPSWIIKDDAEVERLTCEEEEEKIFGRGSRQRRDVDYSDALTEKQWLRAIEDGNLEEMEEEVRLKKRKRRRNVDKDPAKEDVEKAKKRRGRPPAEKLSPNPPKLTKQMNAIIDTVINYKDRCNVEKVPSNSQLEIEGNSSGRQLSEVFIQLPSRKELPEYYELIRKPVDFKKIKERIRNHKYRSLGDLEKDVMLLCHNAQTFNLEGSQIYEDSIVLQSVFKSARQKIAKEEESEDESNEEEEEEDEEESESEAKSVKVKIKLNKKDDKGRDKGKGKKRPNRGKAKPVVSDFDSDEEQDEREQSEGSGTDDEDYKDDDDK

SMARCA2 = target: T2, SMARCA2 (Homo sapiens, UniProt P51531); test: SMARCA2 FRET nucleosome remodeling activity assay; assay type: biochemical
T2 construct: FLAG tag (YKDDDDK) (C); made in house; host or cells: Sf21 insect cells (baculovirus, pFastBacI)
T2 sequence (P51531 with tags, fused parts or gaps): as above
Experimental: The SMARCA2 remodeling assay was initiated by the addition of 2 uL of a nucleosome remodeling assay substrate and ATP mixture (final volume=10 uL). […] The assays were terminated after 15 minutes by the addition of 2 uL EDTA (final concentration of 25 mM). The SMARCA2 remodeling activity was determined by measuring the fluorescence ratio of the Cy3 and Cy5 labels ([…]). The remodeling of the nucleosome substrate causes an increase in the spacing between the Cy3 and Cy5 labels and therefore a reduction in FRET and an increase in Cy3/Cy5 fluorescence ratio.

FL-SMARCA4 = FL-SMARCA4 (Homo sapiens, UniProt P51532); test: SMARCA4 ATPase activity assay (ADP-Glo, chicken mononucleosome substrate)
Chain of FL-SMARCA4 (P51532 whole entry): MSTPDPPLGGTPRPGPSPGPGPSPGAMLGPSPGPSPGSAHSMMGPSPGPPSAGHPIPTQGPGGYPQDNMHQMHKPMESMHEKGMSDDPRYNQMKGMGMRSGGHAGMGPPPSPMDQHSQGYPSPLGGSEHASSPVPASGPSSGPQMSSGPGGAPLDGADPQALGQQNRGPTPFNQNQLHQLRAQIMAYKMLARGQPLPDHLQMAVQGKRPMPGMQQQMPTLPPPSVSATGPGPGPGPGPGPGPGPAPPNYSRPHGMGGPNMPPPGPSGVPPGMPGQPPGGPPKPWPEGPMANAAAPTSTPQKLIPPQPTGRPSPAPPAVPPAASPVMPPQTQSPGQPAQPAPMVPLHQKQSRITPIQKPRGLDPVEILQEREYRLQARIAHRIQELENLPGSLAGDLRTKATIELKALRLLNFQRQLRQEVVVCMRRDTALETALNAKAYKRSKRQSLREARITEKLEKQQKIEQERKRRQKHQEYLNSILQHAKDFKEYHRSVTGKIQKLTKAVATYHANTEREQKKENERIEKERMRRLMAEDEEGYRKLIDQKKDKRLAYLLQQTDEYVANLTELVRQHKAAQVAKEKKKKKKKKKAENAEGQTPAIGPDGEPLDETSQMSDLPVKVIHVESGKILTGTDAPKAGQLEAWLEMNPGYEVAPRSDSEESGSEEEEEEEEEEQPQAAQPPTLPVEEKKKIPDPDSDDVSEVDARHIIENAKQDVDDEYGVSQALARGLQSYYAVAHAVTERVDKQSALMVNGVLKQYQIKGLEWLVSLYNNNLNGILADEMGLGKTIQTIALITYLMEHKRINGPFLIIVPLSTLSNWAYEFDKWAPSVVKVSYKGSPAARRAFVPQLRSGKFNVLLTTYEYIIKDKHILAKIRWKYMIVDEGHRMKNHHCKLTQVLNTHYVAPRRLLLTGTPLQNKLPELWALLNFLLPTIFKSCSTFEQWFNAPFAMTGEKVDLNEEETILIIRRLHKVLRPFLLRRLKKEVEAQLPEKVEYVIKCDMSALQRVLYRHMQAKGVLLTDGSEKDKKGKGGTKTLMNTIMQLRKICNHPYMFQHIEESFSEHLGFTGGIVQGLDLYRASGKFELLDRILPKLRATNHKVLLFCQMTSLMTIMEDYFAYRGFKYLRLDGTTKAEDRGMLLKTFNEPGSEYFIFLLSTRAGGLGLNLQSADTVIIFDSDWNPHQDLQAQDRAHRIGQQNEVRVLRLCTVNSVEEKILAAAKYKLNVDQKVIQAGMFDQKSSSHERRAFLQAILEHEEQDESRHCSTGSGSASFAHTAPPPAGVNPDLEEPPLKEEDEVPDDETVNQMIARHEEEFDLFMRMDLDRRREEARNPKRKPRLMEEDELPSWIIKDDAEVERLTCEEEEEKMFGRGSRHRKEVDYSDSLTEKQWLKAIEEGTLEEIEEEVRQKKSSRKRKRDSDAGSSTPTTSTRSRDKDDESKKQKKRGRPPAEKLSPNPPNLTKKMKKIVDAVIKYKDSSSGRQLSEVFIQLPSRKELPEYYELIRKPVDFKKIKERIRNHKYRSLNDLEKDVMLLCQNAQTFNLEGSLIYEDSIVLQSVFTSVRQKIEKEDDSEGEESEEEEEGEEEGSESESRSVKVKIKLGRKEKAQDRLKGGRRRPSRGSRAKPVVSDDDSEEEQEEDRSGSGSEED

A549 cells = test: High-throughput proliferation (HTP) assay for A549 cells (CellTiter-Glo, 7 days); assay type: cell-based; conditions: Homo sapiens, 168 h, read-out: A549 SMARCA2 IC50
Procedure, shortened: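 Seven-day growth of A549 (62.5 cells/well, F12K with 10% HI-FBS, 37° C.) with compound, read by CellTiter-Glo ATP luminescence. Percent inhibition scaled between DMSO wells and 10 μM Doxorubicin wells, then fitted for EC50 and IC50.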

H358 cells = test: High-throughput proliferation (HTP) assay for H358 cells (CellTiter-Glo, 7 days); assay type: cell-based; conditions: Homo sapiens, NCI-H358, 168 h, read-out: H358 SMARCA2 IC50
Procedure, shortened: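 Cells were plated at 1,000 cells/well in RPMI 1640 + 10% HI-FBS + 1% pen/strep on pre-dispensed compound and incubated 7 days at 37 °C, 5% CO2. Viability was read as ATP luminescence with CellTiter-Glo after 30 min at RT. DMSO served as 0% and 10 µM doxorubicin as 100% inhibition for EC50/IC50.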

[2] = FL-SMARCA4 IC50, Table 3.2, ATPase assay, enzyme 5 nM, ATP 250 uM, chicken mononucleosome 10 nM, 30 min preincubation
[3] = FL-SMARCA4 IC>50, Table 3c.2, ATPase assay, enzyme 5 nM, ATP 250 uM, chicken mononucleosome 10 nM, 30 min preincubation
[4] = Table 3d.1, read-out: FL-SMARCA2 IC>50

SMILES | IC50 ([1]; Table 3.1) [µM] | IC50 (SMARCA2) [µM] | IC50 (FL-SMARCA4; [2]) [µM] | IC50 (A549 cells) [µM] | IC50 (H358 cells) [µM] | IC50 ([1]; Table 3c.1) [µM] | IC50 (FL-SMARCA4; [3]) [µM] | IC50 [1, 4] [µM] | IC50 (FL-SMARCA4; FL-SMARCA4 IC50) [µM]
CCn1cc(NC(=O)c2cc(Cl)c(Cl)n2C)ccc1=O [Compound 1] | 2.72 | 7.12 | 39.6 | – | – | – | – | – | –
CCn1cc(NC(=O)c2cc(Cl)c(C#N)s2)cc(F)c1=O [Compound 128] | 0.0787 | 0.223 | 0.161 | – | – | – | – | – | –
O=C(Nc1cc(F)c(=O)n(CCF)c1)c1cc(Cl)c(Cl)s1 [Compound 129] | 0.0512 | 0.114 | 0.196 | 0.904 | – | – | – | – | –
N#Cc1sc(C(=O)Nc2cc(Cl)c(=O)n(CC(F)(F)F)c2)cc1Cl [Compound 131] | 0.113 | 0.171 | 0.303 | – | – | – | – | – | –
CCn1cc(NC(=O)c2cnc(C#N)s2)cc(Cl)c1=O [Compound 136] | 0.0577 | 0.0288 | 0.184 | – | – | – | – | – | –
N#Cc1ncc(C(=O)Nc2cc(Cl)c(=O)n(CC(F)(F)F)c2)s1 [Compound 137] | 0.026 | 0.029 | 0.111 | – | – | – | – | – | –
Cc1nsc(C#Cc2cc(C(=O)Nc3cc(F)c(=O)n(CC(F)F)c3)sc2Cl)n1 [Compound 139c] | – | – | – | 0.639 | 0.55 | 0.0599 | 0.186 | – | –
CC(N)CC#Cc1cc(C(=O)Nc2cc(F)c(=O)n(CC(F)F)c2)sc1Cl (stereo not drawn) [Compound 139d] | – | – | – | > 10 | > 10 | – | – | 3.1 | 6.7
N#Cc1sc(C(=O)Nc2cc(F)c(=O)n(CC(F)(F)F)c2)cc1Cl [Compound 140] | 0.0467 | 0.089 | 0.147 | 1.25 | – | – | – | – | –
O=C1Cc2ccc(C#Cc3cc(C(=O)Nc4cc(F)c(=O)n(CC(F)F)c4)sc3Cl)cc2N1 [Compound 140c] | – | – | – | > 10 | > 10 | 0.034 | 0.0633 | – | –
CN1CCCC(C#Cc2cc(C(=O)Nc3cc(F)c(=O)n(CC(F)F)c3)sc2Cl)C1 (stereo not drawn) [Compound 140d] | – | – | – | 7.18 | > 10 | – | – | 0.772 | 1.77
O=C(Nc1cc(F)c(=O)n(CC(F)(F)F)c1)c1cc(Cl)c(Cl)s1 [Compound 141] | 0.0941 | 0.399 | 0.352 | – | – | – | – | – | –
Cc1nc2cc(C#Cc3cc(C(=O)Nc4cc(F)c(=O)n(CC(F)F)c4)sc3Cl)ccc2[nH]1 [Compound 141c] | – | – | – | 6.02 | > 10 | 0.028 | 0.0598 | – | –
O=C1Cc2c(C#Cc3cc(C(=O)Nc4cc(F)c(=O)n(CC(F)F)c4)sc3Cl)cccc2N1 [Compound 142c] | – | – | – | 3.21 | 4.65 | 0.0499 | 0.119 | – | –
O=C(Nc1cc(F)c(=O)n(CC(F)(F)F)c1)c1cnc(Cl)s1 [Compound 143] | 0.121 | 0.168 | 0.331 | – | – | – | – | – | –
CC(=O)Nc1cc(C#Cc2cc(C(=O)Nc3cc(F)c(=O)n(CC(F)F)c3)sc2Cl)ccn1 [Compound 143c] | – | – | – | 0.458 | > 10 | 0.00608 | 0.00817 | – | –
Cn1c(C(=O)Nc2cc(F)c(=O)n(CC(F)(F)F)c2)cc(Cl)c1Cl [Compound 144] | 0.245 | 1.27 | 1.17 | – | – | – | – | – | –
Cn1ccc(C#Cc2cc(C(=O)Nc3cc(F)c(=O)n(CC(F)F)c3)sc2Cl)n1 [Compound 144c] | – | – | – | 1.68 | > 10 | 0.0201 | 0.0691 | – | –
O=C(Nc1ccc(=O)n(CC(F)(F)F)c1)c1cc(Cl)n[nH]1 [Compound 145] | 3.01 | 5.06 | 12 | – | – | – | – | – | –
O=C(Nc1cc(F)c(=O)n(CC(F)F)c1)c1cc(C#Cc2ccc3c(c2)C(=O)NC3)c(Cl)s1 [Compound 145c] | – | – | – | > 10 | > 10 | 0.0817 | 0.208 | – | –
CCn1cc(NC(=O)c2cc(Cl)n[nH]2)cc(Cl)c1=O [Compound 146] | 1.02 | 2.57 | 3.59 | – | – | – | – | – | –

SMILES | IC50 ([1]; Table 3.1) [µM] | IC50 (SMARCA2) [µM] | IC50 (FL-SMARCA4; [2]) [µM] | IC50 (A549 cells) [µM] | IC50 (H358 cells) [µM] | IC50 ([1]; Table 3c.1) [µM] | IC50 (FL-SMARCA4; [3]) [µM] | IC50 [1, 4] [µM] | IC50 (FL-SMARCA4; FL-SMARCA4 IC50) [µM]
CN1CCn2cc(C#Cc3cc(C(=O)Nc4cc(F)c(=O)n(CC(F)F)c4)sc3Cl)nc2C1 [Compound 146c] | – | – | – | > 10 | > 10 | 9.54 | 15.3 | – | –
O=C(Nc1cc(F)c(=O)n(CC(F)F)c1)c1cc(C#Cc2cn3c(n2)CNCC3)c(Cl)s1 [Compound 147c] | – | – | – | > 10 | > 10 | 5.24 | 7.96 | – | –
N#Cc1ncc(C(=O)Nc2cc(Cl)c(=O)n(CCF)c2)s1 [Compound 148] | 0.0127 | 0.0222 | – | ≥ 20 | – | – | – | – | –
CN(C)Cc1ncc(C#Cc2cc(C(=O)Nc3cc(F)c(=O)n(CC(F)F)c3)sc2Cl)n1C [Compound 148c] | – | – | – | 4.25 | > 10 | 0.146 | 0.432 | – | –
CN(C)Cc1cc(C#Cc2cc(C(=O)Nc3cc(F)c(=O)n(CC(F)F)c3)sc2Cl)n(C)n1 [Compound 149c] | – | – | – | > 10 | > 10 | 8.03 | 16.1 | – | –
CCn1cc(NC(=O)c2cnc(C#N)s2)cc(F)c1=O [Compound 150] | 0.0266 | 0.0217 | 0.0948 | – | – | – | – | – | –
N#Cc1ncc(C(=O)Nc2cc(F)c(=O)n(CC(F)(F)F)c2)s1 [Compound 151, 2-Cyano-N-(5-fluoro-6-oxo-1-(2,2,2-trifluoroethyl)-1,6-dihydropyridin-3-yl)thiazole-5-carboxamide] | 0.0204 | 0.0288 | 0.0674 | – | – | – | – | – | –
N#Cc1cc(C#Cc2cc(C(=O)Nc3cc(F)c(=O)n(CC(F)F)c3)sc2Cl)ccn1 [Compound 151c] | – | – | – | 0.889 | 4.86 | 0.0296 | 0.111 | – | –
O=C1CCC(C#Cc2cc(C(=O)Nc3cc(F)c(=O)n(CC(F)F)c3)sc2Cl)CN1 (stereo not drawn) [Compound 153c] | – | – | – | > 10 | 6.95 | 0.211 | 0.439 | – | –
CNC(=O)c1cc(C#Cc2cc(C(=O)Nc3cc(F)c(=O)n(CC(F)F)c3)sc2Cl)nn1C [Compound 154c] | – | – | – | > 10 | > 10 | 0.0711 | 0.147 | – | –
O=C(Nc1cc(C2COC2)c(=O)n(CC(F)F)c1)c1cc(F)c(Cl)s1 [Compound 155c] | – | – | – | > 10 | > 10 | 30.8 | 36.2 | – | –
N#Cc1sc(C(=O)Nc2cc(F)c(=O)n(CC(F)F)c2)cc1C#CC1COC1 [Compound 177c] | – | – | – | 1.37 | > 10 | 0.0127 | 0.0797 | – | –
N#Cc1cc(C(=O)Nc2cc(F)c(=O)n(CCF)c2)sc1C#N [Compound 189] | 0.00909 | 0.0234 | 0.0337 | 9.69 | – | – | – | – | –
N#Cc1cc(C(=O)Nc2cc(F)c(=O)n(CCF)c2)sc1Cl [Compound 196] | 0.0382 | 0.0181 | 0.181 | 0.597 | – | – | – | – | –
N#Cc1sc(C(=O)Nc2cc(F)c(=O)n(CC(F)F)c2)cc1Cl [Compound 285] | 0.0272 | 0.00922 | 0.0868 | 0.934 | – | – | – | – | –
O=C(Nc1cc(F)c(=O)n(CCF)c1)c1cc(Cl)c(C(F)F)s1 [Compound 290] | 0.136 | 0.407 | 0.68 | – | – | – | – | – | –
O=C(Nc1cc(F)c(=O)n(CCF)c1)c1cnc(C(F)F)s1 [Compound 295] | 0.173 | 0.499 | 0.736 | – | – | – | – | – | –
O=C(Nc1cc(F)c(=O)n(CC(F)F)c1)c1cnc(C(F)(F)F)s1 [Compound 297, N-(1-(2,2-difluoroethyl)-5-fluoro-6-oxo-1,6-dihydropyridin-3-yl)-2-(trifluoromethyl)thiazole-5-carboxamide] | 0.0757 | – | 0.448 | 2.09 | > 10 | – | – | – | –
C#Cc1cc(NC(=O)c2cc(F)c(Cl)s2)cn(CC(F)F)c1=O [Compound 342] | 0.278 | – | 0.739 | 9.49 | > 10 | – | – | – | –
O=C(Nc1cc(F)c(=O)n(CC(F)F)c1)c1cc(C#CC2COC2)c(Cl)s1 [Compound 343] | 0.023 | – | 0.107 | 0.492 | > 10 | – | – | – | –
O=C(Nc1cc(F)c(=O)n(CC(F)F)c1)c1cc(C#Cc2cncnc2)c(Cl)s1 [Compound 346] | 0.181 | – | 0.606 | 5.24 | > 10 | – | – | – | –
